The structures appear in SMILES notation.

What all share (format): cell-based
The test system of test [1] is HbF. Kind of test: HbF HiBiT induction assay in HUDEP-2 cells. The conditions noted are these: HUDEP-2 cells with HiBiT tag in HBG1/2, 72 hours of treatment; area under the dose response curve, higher AUC = greater HbF induction. The gist of the method: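 HUDEP-2 cells carrying a HiBiT tag on HBG1/2 were exposed to compounds for 72 h at 37° C, 5% CO2, in IMDM with EPO, hSCF, DOX, transferrin, insulin, heparin and 5% human plasma. HiBiT luminescence was read after lytic detection; HbF induction is expressed as dose-response AUC, alongside EC50 and Ymax.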

The target in test [2] is T1, ZBTB7A (Homo sapiens, UniProt O95365+Q96SW2).
T1 construct: HUDEP-2 cells engineered to express a HiBiT tag in either the WIZ (Widely interspaced zinc finger) or ZBTB7A
T1 sequence (O95365 whole entry): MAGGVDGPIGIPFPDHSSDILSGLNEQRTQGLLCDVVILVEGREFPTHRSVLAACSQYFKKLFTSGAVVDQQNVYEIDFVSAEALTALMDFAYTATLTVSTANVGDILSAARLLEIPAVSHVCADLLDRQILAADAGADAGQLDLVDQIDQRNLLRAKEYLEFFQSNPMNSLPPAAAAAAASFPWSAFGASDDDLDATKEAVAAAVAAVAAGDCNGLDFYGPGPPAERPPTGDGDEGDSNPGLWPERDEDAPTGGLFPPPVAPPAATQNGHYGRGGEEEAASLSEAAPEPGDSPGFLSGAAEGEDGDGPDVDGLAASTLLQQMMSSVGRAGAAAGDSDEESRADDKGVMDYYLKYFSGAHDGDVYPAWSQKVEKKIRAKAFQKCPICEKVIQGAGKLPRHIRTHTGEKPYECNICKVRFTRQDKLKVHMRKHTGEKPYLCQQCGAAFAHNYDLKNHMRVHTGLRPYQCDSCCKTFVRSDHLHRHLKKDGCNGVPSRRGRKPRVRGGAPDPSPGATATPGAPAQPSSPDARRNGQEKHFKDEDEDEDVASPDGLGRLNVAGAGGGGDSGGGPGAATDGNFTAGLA
T1 sequence (Q96SW2 whole entry): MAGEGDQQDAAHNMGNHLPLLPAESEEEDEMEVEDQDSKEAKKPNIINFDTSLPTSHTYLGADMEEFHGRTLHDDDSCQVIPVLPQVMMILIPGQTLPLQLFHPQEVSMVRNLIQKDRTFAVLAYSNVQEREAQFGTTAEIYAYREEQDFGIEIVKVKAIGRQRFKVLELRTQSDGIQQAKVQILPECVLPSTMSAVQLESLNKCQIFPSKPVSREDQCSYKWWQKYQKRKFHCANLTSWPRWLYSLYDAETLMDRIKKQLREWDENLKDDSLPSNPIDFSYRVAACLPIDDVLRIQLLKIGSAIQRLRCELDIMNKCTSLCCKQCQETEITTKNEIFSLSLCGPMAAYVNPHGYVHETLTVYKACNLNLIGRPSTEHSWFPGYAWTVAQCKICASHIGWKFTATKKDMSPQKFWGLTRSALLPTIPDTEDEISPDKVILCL
T1 sequence (Q16531 whole entry partner): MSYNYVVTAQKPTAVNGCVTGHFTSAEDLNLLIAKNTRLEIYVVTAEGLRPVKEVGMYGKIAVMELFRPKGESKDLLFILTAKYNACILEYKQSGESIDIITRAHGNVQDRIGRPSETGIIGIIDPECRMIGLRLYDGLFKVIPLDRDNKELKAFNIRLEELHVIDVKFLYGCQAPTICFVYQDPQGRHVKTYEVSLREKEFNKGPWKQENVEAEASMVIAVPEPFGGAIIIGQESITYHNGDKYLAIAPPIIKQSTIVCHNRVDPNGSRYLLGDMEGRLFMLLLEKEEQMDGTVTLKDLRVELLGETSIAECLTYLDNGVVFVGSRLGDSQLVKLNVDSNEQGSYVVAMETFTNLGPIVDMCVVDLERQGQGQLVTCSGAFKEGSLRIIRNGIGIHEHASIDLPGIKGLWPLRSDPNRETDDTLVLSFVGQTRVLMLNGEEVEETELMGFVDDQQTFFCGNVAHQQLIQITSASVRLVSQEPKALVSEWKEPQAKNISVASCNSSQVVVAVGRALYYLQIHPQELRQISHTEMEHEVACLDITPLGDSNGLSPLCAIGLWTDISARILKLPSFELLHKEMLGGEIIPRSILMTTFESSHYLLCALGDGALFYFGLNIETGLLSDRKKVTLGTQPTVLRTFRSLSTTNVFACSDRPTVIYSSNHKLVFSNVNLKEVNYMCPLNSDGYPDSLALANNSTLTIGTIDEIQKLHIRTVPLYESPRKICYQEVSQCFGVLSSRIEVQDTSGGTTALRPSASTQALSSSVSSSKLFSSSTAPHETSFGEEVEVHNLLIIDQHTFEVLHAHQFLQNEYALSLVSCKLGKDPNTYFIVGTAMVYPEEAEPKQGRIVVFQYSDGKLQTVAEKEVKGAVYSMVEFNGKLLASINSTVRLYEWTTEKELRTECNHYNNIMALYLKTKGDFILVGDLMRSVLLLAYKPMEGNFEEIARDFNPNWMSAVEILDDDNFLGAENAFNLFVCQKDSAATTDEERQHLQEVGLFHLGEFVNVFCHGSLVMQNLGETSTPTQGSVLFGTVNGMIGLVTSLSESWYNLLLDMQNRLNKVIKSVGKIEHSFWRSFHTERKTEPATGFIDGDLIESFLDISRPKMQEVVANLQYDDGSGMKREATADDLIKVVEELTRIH
Kind of test: HUDEP-2 ZBTB7A HiBiT degradation assay. Conditions: HiBiT-tagged ZBTB7A degradation in HUDEP-2 cells, 24 hours of treatment; read-out: ZBTB7A EC50. The gist of the method: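 HiBiT-tagged HUDEP-2 cells were pre-cultured 48 h in IMDM with EPO, SCF, doxycycline and 5% human plasma, then exposed to compounds at 1.0×10^6 cells/ml for 24 h at 37 °C. Nano-Glo HiBiT lytic luminescence, normalised to DMSO over 10 concentrations, gave EC50 and Y-min.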

The target in test [3] is T2, WIZ (Homo sapiens, UniProt O95785+Q96SW2).
T2 construct: HUDEP-2 cells engineered to express a HiBiT tag in either the WIZ (Widely interspaced zinc finger) or ZBTB7A
T2 sequence (O95785 whole entry): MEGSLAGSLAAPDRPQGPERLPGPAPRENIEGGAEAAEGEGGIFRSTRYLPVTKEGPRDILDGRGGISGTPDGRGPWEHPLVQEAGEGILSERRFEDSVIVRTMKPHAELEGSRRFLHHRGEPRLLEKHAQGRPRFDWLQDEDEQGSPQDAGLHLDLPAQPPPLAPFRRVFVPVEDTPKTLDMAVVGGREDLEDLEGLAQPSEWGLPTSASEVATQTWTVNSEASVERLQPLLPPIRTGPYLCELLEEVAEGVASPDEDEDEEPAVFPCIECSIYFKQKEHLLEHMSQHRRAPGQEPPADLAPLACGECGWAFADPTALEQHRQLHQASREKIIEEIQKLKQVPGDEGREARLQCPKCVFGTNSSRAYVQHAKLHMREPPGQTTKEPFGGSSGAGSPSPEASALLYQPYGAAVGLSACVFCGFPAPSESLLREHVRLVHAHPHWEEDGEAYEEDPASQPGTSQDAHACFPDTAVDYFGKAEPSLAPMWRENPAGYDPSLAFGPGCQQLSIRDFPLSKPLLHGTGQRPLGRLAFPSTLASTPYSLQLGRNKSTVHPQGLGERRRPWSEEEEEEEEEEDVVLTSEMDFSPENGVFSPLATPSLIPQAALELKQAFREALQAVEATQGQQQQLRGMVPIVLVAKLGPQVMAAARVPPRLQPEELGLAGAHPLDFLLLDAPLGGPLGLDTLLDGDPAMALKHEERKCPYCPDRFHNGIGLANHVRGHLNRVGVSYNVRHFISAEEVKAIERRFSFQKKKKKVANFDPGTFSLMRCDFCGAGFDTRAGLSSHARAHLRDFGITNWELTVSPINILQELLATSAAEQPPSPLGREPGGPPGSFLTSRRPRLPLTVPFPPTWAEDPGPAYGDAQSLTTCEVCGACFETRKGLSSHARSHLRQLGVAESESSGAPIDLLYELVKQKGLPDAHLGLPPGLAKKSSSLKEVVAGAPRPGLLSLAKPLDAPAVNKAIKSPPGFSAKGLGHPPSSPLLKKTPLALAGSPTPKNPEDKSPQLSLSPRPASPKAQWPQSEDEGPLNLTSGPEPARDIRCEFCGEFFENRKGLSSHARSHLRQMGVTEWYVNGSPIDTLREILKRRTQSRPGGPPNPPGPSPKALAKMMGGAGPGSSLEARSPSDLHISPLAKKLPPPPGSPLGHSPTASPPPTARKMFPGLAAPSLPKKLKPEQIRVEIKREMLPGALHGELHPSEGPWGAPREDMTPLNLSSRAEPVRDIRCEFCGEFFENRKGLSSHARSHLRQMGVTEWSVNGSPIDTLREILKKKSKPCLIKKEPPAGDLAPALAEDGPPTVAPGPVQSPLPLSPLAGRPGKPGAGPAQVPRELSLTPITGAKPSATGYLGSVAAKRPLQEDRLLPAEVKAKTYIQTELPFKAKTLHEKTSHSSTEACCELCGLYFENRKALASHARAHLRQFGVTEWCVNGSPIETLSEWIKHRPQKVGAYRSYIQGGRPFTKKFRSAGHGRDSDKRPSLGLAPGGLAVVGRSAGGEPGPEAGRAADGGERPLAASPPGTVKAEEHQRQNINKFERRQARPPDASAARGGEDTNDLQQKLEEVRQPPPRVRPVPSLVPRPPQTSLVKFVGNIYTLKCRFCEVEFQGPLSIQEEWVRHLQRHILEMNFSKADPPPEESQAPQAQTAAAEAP
T2 sequence (Q96SW2 whole entry): as the sequence (Q96SW2 whole entry) above
T2 sequence (Q16531 whole entry partner): as the sequence (Q16531 whole entry partner) above
Kind of test: HUDEP-2 WIZ HiBiT degradation assay. Conditions: HiBiT-tagged WIZ degradation in HUDEP-2 cells, 24 hours of treatment; read-out: WIZ EC50. The gist of the method: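 HiBiT-tagged HUDEP-2 cells at 1.0×10^6 cells/ml in SFEM II with SCF, EPO, dexamethasone and doxycycline, treated 24 h at 37 °C with a 10-point series ([…]). Luminescence after HiBiT lytic detection, normalized to DMSO; EC50 and Y-min from fitted curves.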

For `Cc1cc(-c2c(Nc3cccc4c3C(=O)N([C@H]3CCC(=O)NC3=O)C4=O)cc3c(c2F)OCC(=O)N3C)c(F)cn1` [Compound 67, 2-((S)-2,6-dioxopiperidin-3-yl)-4-((8-fluoro-7-(5-fluoro-2-methylpyridin-4-yl)-4-methyl-3-oxo-3,4-dihydro-2H-benzo[b][1,4]oxazin-6-yl)amino)isoindoline-1,3-dione], the “HBF AUC” value in test [1] is given as “++ (++ = 100 ≤ AUC < 150)”. Besides, the DC50 was 25 nM in test [2] and 17 nM in test [3].

Consider `CN1C(=O)COc2cc([C@H]3CC[C@H](C#N)CC3)c(Nc3cccc4c3C(=O)N([C@H]3CCC(=O)NC3=O)C4=O)cc21` [Compound 68, (1S,4r)-4-(6-((2-((S)-2,6-dioxopiperidin-3-yl)-1,3-dioxoisoindolin-4-yl)amino)-4-methyl-3-oxo-3,4-dihydro-2H-benzo[b][1,4]oxazin-7-yl)cyclohexane-1-carbonitrile], for which, in test [1], the “HBF AUC” value is “+++ (+++ = AUC ≥ 150)”. Further, the DC50 in test [2] was determined as 6 nM; in test [3], 3 nM.

Take `Cc1cncc(-c2c(Nc3cccc4c3C(=O)N([C@H]3CCC(=O)NC3=O)C4=O)cc3c(c2F)OCC(=O)N3C)c1` [Compound 69, (S)-2-(2,6-dioxopiperidin-3-yl)-4-((8-fluoro-4-methyl-7-(5-methylpyridin-3-yl)-3-oxo-3,4-dihydro-2H-benzo[b][1,4]oxazin-6-yl)amino)isoindoline-1,3-dione]: in test [1], the “HBF AUC” value is recorded as “+ (+ = 15 ≤ AUC < 100)”. In addition, the figures for the DC50 in test [2] and in test [3] were 54 nM and 20 nM, respectively.

In the case of `Cc1cc(-c2cc3c(cc2Nc2cccc4c2C(=O)N([C@H]2CCC(=O)NC2=O)C4=O)N(C)C(=O)OC3C)ccn1` (stereo partly drawn) [Compound 70, 4-((1,4-dimethyl-6-(2-methylpyridin-4-yl)-2-oxo-1,4-dihydro-2H-benzo[d][1,3]oxazin-7-yl)amino)-2-((S)-2,6-dioxopiperidin-3-yl)isoindoline-1,3-dione], the “HBF AUC” value in test [1] is reported as “++ (++ = 100 ≤ AUC < 150)”. Besides, the DC50 in test [2] stood at 15 nM; in test [3], 19 nM.

For `COc1ccc(-c2cc3c(cc2Nc2cccc4c2C(=O)N([C@H]2CCC(=O)NC2=O)C4=O)N(C)C(=O)O[C@H]3C)cc1F` [Compound 71, 2-((S)-2,6-dioxopiperidin-3-yl)-4-(((S)-6-(3-fluoro-4-methoxyphenyl)-1,4-dimethyl-2-oxo-1,4-dihydro-2H-benzo[d][1,3]oxazin-7-yl)amino)isoindoline-1,3-dione], the “HBF AUC” value in test [1] is recorded as “++ (++ = 100 ≤ AUC < 150)”. Besides, the DC50 was 10 nM in test [2] and 16 nM in test [3].

For the compound `Cc1cc(-c2cc3c(cc2Nc2cccc4c2C(=O)N([C@H]2CCC(=O)NC2=O)C4=O)N(C)C(=O)OC3C)cc(C)n1` (stereo partly drawn) [Compound 72, 4-((6-(2,6-dimethylpyridin-4-yl)-1,4-dimethyl-2-oxo-1,4-dihydro-2H-benzo[d][1,3]oxazin-7-yl)amino)-2-((S)-2,6-dioxopiperidin-3-yl)isoindoline-1,3-dione], the “HBF AUC” value in test [1] was “+++ (+++ = AUC ≥ 150)”. For the same compound, the DC50 was 21 nM in test [2] and 14 nM in test [3].

For `Cc1cc(-c2cc3c(cc2Nc2cccc4c2C(=O)N([C@H]2CCC(=O)NC2=O)C4=O)N(C)C(=O)O[C@H]3C)c(F)cn1` [Compound 73, 2-((S)-2,6-dioxopiperidin-3-yl)-4-(((S)-6-(5-fluoro-2-methylpyridin-4-yl)-1,4-dimethyl-2-oxo-1,4-dihydro-2H-benzo[d][1,3]oxazin-7-yl)amino)isoindoline-1,3-dione], in test [1], the “HBF AUC” value is on record as “++ (++ = 100 ≤ AUC < 150)”. The DC50 in test [2] was found to be 11 nM; in test [3], 12 nM.

For `Cc1cc(-c2cc3c(cc2Nc2cccc4c2C(=O)N([C@H]2CCC(=O)NC2=O)C4=O)N(C)C(=O)O[C@@H]3C)c(F)cn1` [Compound 74, 2-((S)-2,6-dioxopiperidin-3-yl)-4-(((R)-6-(5-fluoro-2-methylpyridin-4-yl)-1,4-dimethyl-2-oxo-1,4-dihydro-2H-benzo[d][1,3]oxazin-7-yl)amino)isoindoline-1,3-dione], the “HBF AUC” value in test [1] is on record as “++ (++ = 100 ≤ AUC < 150)”. The figures for the DC50 in test [2] and in test [3] were 10 nM and 11 nM, respectively.

Regarding `CC(=O)N1CCC(c2cc3c(cc2Nc2cccc4c2C(=O)N([C@H]2CCC(=O)NC2=O)C4=O)N(C)C(=O)OC3C)CC1` (stereo partly drawn) [Compound 75, 4-((6-(1-acetylpiperidin-4-yl)-1,4-dimethyl-2-oxo-1,4-dihydro-2H-benzo[d][1,3]oxazin-7-yl)amino)-2-((S)-2,6-dioxopiperidin-3-yl)isoindoline-1,3-dione], the “HBF AUC” value in test [1] is “++ (++ = 100 ≤ AUC < 150)”. The DC50 in test [2] amounted to 75 nM; in test [3], 37 nM.

Take `COc1cc(-c2c(Nc3cccc4c3C(=O)N([C@H]3CCC(=O)NC3=O)C4=O)cc3c(c2F)OCC(=O)N3C)c(F)cn1` [Compound 76, 2-((S)-2,6-dioxopiperidin-3-yl)-4-((8-fluoro-7-(5-fluoro-2-methoxypyridin-4-yl)-4-methyl-3-oxo-3,4-dihydro-2H-benzo[b][1,4]oxazin-6-yl)amino)isoindoline-1,3-dione]: the “HBF AUC” value in test [1] is “+ (+ = 15 ≤ AUC < 100)”. Moreover, the results for the DC50 in test [2] and in test [3] were 65 nM and 22 nM, respectively.

As for `Cc1cc(-c2c(Nc3cccc4c3C(=O)N(C3CCC(=O)NC3=O)C4=O)cc3c(c2F)OCC(=O)N3C)cc(C(F)F)n1` (stereo not drawn) [Compound 77, 4-((7-(2-(difluoromethyl)-6-methylpyridin-4-yl)-8-fluoro-4-methyl-3-oxo-3,4-dihydro-2H-benzo[b][1,4]oxazin-6-yl)amino)-2-(2,6-dioxopiperidin-3-yl)isoindoline-1,3-dione], in test [1], the “HBF AUC” value is recorded as “+ (+ = 15 ≤ AUC < 100)”. Besides, the values for the DC50 in test [2] and in test [3] were 102 nM and 112 nM, respectively.

For `Cc1cc(-c2c(Nc3cccc4c3C(=O)N(C3CCC(=O)NC3=O)C4=O)cc3c(c2F)OCC(=O)N3C)cc(C(F)F)n1` (stereo not drawn) [Compound 78, 4-((7-(2-(difluoromethyl)-6-methylpyridin-4-yl)-8-fluoro-4-methyl-3-oxo-3,4-dihydro-2H-benzo[b][1,4]oxazin-6-yl)amino)-2-(2,6-dioxopiperidin-3-yl)isoindoline-1,3-dione], the “HBF AUC” value in test [1] is given as “++ (++ = 100 ≤ AUC < 150)”. Besides, the figures for the DC50 in test [2] and in test [3] were 70 nM and 76 nM, respectively.

As for `Cc1cc(-c2c(Nc3cccc4c3C(=O)N([C@H]3CCC(=O)NC3=O)C4=O)cc3c(c2F)C(C)OC(=O)N3C)ccn1` (stereo partly drawn) [Compound 79, 2-((S)-2,6-dioxopiperidin-3-yl)-4-((5-fluoro-1,4-dimethyl-6-(2-methylpyridin-4-yl)-2-oxo-1,4-dihydro-2H-benzo[d][1,3]oxazin-7-yl)amino)isoindoline-1,3-dione], the “HBF AUC” value in test [1] is listed as “+ (+ = 15 ≤ AUC < 100)”. The DC50 in test [2] worked out at 28 nM; in test [3], 27 nM.

As to `Cc1cc(-c2c(Nc3cccc4c3C(=O)N(C3CCC(=O)NC3=O)C4=O)cc3c(c2F)OCC(=O)N3C)ccn1` (stereo not drawn) [Compound 80, 2-(2,6-dioxopiperidin-3-yl)-4-((8-fluoro-4-methyl-7-(2-methylpyridin-4-yl)-3-oxo-3,4-dihydro-2H-benzo[b][1,4]oxazin-6-yl)amino)isoindoline-1,3-dione], the “HBF AUC” value in test [1] is recorded as “++ (++ = 100 ≤ AUC < 150)”. Also, the DC50 in test [2] is 38 nM; in test [3] it was 29 nM.

As to `Cc1cc(-c2c(Nc3cccc4c3C(=O)N(C3CCC(=O)NC3=O)C4=O)cc3c(c2F)OCC(=O)N3C)ccn1` (stereo not drawn) [Compound 81, 2-(2,6-dioxopiperidin-3-yl)-4-((8-fluoro-4-methyl-7-(2-methylpyridin-4-yl)-3-oxo-3,4-dihydro-2H-benzo[b][1,4]oxazin-6-yl)amino)isoindoline-1,3-dione], the “HBF AUC” value in test [1] is listed as “++ (++ = 100 ≤ AUC < 150)”. The DC50 in test [2] was 28 nM; in test [3] it was 24 nM.

With `Cc1cc(-c2c(Nc3cccc4c3C(=O)N([C@H]3CCC(=O)NC3=O)C4=O)cc3c(c2F)[C@@H](C)OC(=O)N3C)c(F)cn1` [Compound 82, 2-((S)-2,6-dioxopiperidin-3-yl)-4-(((4R)-5-fluoro-6-(5-fluoro-2-methylpyridin-4-yl)-1,4-dimethyl-2-oxo-1,4-dihydro-2H-benzo[d][1,3]oxazin-7-yl)amino)isoindoline-1,3-dione], the “HBF AUC” value in test [1] is listed as “++ (++ = 100 ≤ AUC < 150)”. In addition, the DC50 worked out at 19 nM in test [2] and 54 nM in test [3].

Regarding `Cc1cc(-c2cc3c(cc2Nc2cccc4c2C(=O)N(C2CCC(=O)NC2=O)C4=O)N(C)C(=O)CC3(C)C)ccn1` (stereo not drawn) [Compound 83, 2-(2,6-dioxopiperidin-3-yl)-4-((1,4,4-trimethyl-6-(2-methylpyridin-4-yl)-2-oxo-1,2,3,4-tetrahydroquinolin-7-yl)amino)isoindoline-1,3-dione], in test [1], the “HBF AUC” value is “+ (+ = 15 ≤ AUC < 100)”. Also, the DC50 turned out to be 13 nM in test [2] and 8 nM in test [3].
